Source: ChEMBL document CHEMBL3593215, “Design, synthesis and antiproliferative activities of novel benzamides derivatives as HDAC inhibitors” (Eur J Med Chem, 2015)

Key:
[1] = tested on: A549; assay: Cytotoxicity against human A549 cells assessed as inhibition of cell proliferation after 72 hrs by MTT assay; format: functional, cell-based; settings: A549, 72 h
[2] = tested on: HCT-116; assay: Cytotoxicity against human HCT116 cells assessed as inhibition of cell proliferation after 72 hrs by MTT assay; format: functional, cell-based; settings: HCT-116, 72 h
[3] = tested on: MCF7; assay: Cytotoxicity against human MCF7 cells assessed as inhibition of cell proliferation after 72 hrs by MTT assay; format: functional, cell-based; settings: MCF7, 72 h
[4] = target: T1, Histone deacetylase 1 (Homo sapiens, UniProt Q13547); assay: Inhibition of HDAC1 (unknown origin) preincubated for 5 mins followed by fluorogenic substrate addition measured after 30 mins by microplate reader analysis
T1 sequence (Q13547 whole entry): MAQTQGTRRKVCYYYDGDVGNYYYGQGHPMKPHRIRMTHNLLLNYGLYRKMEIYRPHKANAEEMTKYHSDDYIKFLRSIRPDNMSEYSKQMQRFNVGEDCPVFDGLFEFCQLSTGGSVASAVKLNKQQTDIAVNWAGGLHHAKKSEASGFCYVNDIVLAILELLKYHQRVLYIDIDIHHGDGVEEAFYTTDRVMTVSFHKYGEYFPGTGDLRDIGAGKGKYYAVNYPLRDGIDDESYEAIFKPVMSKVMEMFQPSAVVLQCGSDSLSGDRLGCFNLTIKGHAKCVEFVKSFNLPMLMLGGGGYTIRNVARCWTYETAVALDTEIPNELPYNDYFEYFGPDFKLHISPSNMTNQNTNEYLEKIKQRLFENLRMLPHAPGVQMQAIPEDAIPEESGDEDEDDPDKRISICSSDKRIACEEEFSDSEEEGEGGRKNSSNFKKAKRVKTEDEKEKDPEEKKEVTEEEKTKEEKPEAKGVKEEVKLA

[5] = target: T1, Histone deacetylase 1; assay: Potency index, ratio of MS-275 IC50 to compound IC50 for HDAC1 (unknown origin)
[6] = Oral bioavailability in Sprague-Dawley rat at 25 mg/kg; format: ADME, organism-based; settings: in vivo
[7] = Elimination half life in Sprague-Dawley rat at 25 mg/kg, po; format: ADME, organism-based; settings: in vivo, read-out: beta t1/2 (converted)
[8] = Tmax in Sprague-Dawley rat at 25 mg/kg, po; format: ADME, organism-based; settings: in vivo
[9] = AUClast in Sprague-Dawley rat at 25 mg/kg, po; format: ADME, organism-based; design: dose 25 mg/kg, route oral, time 0 - last; settings: in vivo
[10] = tested on: A549; assay: Potency index, ratio of MS-275 IC50 to compound IC50 for human A549 cells; format: functional
[11] = Elimination half life in Sprague-Dawley rat at 5 mg/kg, iv; format: ADME, organism-based; settings: in vivo, read-out: beta t1/2 (converted)
[12] = AUCinfinity_obs in Sprague-Dawley rat at 25 mg/kg, po; format: ADME, organism-based; design: dose 25 mg/kg, time infinity, route oral; settings: in vivo

Row | SMILES | IC50 [1] [nM] | IC50 [2] [nM] | IC50 [3] [nM] | IC50 [4] [nM] | Ratio IC50 [5] | bioavailability [6] [%] | half-life [7] [h] | Tmax [8] [h] | AUC(0-t) [9] [ng·h/mL] | Ratio IC50 [10] | half-life [11] [h] | AUC(0-inf) [12] [ng·h/mL]
1 | Nc1ccccc1NC(=O)c1ccc(CNC(=O)OCc2cccnc2)cc1 [ENTINOSTAT] | 3130 | 5100 | 7880 |  |  |  |  |  |  |  |  | 
2 | Nc1ccccc1NC(=O)c1ccc(CNC(=O)/C=C/c2cnc3ccccn23)cc1 | 832 | 2300 | 4130 | 129 |  |  |  |  |  |  |  | 
3 | Nc1ccccc1NC(=O)c1ccc(CNC(=O)/C=C/c2c[nH]c3ccccc23)cc1 | 649 | 1220 | 2920 | 120 | 2 |  |  |  |  |  |  | 
4 | Nc1ccccc1NC(=O)c1ccc(CCNC(=O)/C=C/c2cnc3cccnn23)cc1 | 1150 | 2300 | 4670 | 154 |  |  |  |  |  |  |  | 
5 | Nc1ccccc1NC(=O)c1ccc(CCNC(=O)/C=C/c2cnc3ccccn23)cc1 | 1470 | 4500 | 9440 | 217 |  |  |  |  |  |  |  | 
6 | Nc1ccccc1NC(=O)c1ccc(CCNC(=O)/C=C/c2c[nH]c3ccccc23)cc1 | 1280 | 1570 | 5020 | 169 |  |  |  |  |  |  |  | 
7 | Nc1ccccc1NC(=O)c1ccc(CNC(=O)/C=C/c2cnc3cccnn23)cc1 | 723 | 1260 | 2870 | 118 | 2 | 76 | 8.22 | 1.17 | 6780 | 5 | 1.87 | 8610
8 | Cc1nc2ccccn2c1/C=C/C(=O)NCCc1ccc(C(=O)Nc2ccccc2N)cc1 | 1460 | 1960 | 6800 | 178 |  |  |  |  |  |  |  | 
9 | Cc1nc2ccccn2c1/C=C/C(=O)NCc1ccc(C(=O)Nc2ccccc2N)cc1 | 1300 | 1430 | 6220 | 173 |  |  |  |  |  |  |  | 
10 | Nc1cc(F)ccc1NC(=O)c1ccc(CNC(=O)/C=C/c2cnc3cccnn23)cc1 | 791 | 2260 | 5510 | 131 |  |  |  |  |  |  |  | 
11 | Nc1ccc(F)cc1NC(=O)c1ccc(CNC(=O)/C=C/c2cnc3cccnn23)cc1 | 812 | 4290 | 11000 | 137 |  |  |  |  |  |  |  | 
